In patent US10508120B2, “TYK2 inhibitors and uses thereof” (Nimbus Lakshmi, Inc., priority 2017, dated 2019):

Columns and labels:
JAK2 kinase domain (JH1) = JAK2 kinase domain (JH1) (Homo sapiens (Human), UniProt O60674); test: JAK2 Radioactive Kinase Assay; assay type: biochemical; conditions: compound at 10 μM, ATP 10 μM; for inhibition at 10 µM: read-out: JAK2 JH1% Inhibition @ 10 μM
In short: (§1)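 Compounds were tested at a single concentration of 10 μM in a radiometric kinase format against each isolated kinase domain. Activity is reported as percent inhibition at that concentration.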

Tyk2 kinase domain (DH1) = Tyk2 kinase domain (DH1) (Homo sapiens (Human), UniProt P29597); test: Tyk2 Radioactive Kinase Assay; assay type: biochemical; conditions: compound at 10 μM, ATP 10 μM; for inhibition at 10 µM: read-out: Tyk2 JH1% Inhibition @ 10 μM
Sequence of Tyk2 kinase domain (DH1) (P29597 897-1176): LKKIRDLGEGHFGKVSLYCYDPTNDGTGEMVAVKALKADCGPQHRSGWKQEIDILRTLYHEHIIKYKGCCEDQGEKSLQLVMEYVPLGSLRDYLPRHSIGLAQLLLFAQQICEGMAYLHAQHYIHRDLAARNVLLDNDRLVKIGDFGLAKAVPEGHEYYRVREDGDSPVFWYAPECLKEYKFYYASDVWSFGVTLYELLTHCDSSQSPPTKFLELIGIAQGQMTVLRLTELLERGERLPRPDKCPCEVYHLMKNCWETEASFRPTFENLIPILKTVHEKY
In short: as §1

[1] = biological target: human TYK2 (JH2domain-pseudokinase) (Homo sapiens (Human), UniProt P29597); test: TYK2 JH2 Domain Binding Assay (KINOMEscan)
Sequence of human TYK2 (JH2domain-pseudokinase) (P29597 556-888): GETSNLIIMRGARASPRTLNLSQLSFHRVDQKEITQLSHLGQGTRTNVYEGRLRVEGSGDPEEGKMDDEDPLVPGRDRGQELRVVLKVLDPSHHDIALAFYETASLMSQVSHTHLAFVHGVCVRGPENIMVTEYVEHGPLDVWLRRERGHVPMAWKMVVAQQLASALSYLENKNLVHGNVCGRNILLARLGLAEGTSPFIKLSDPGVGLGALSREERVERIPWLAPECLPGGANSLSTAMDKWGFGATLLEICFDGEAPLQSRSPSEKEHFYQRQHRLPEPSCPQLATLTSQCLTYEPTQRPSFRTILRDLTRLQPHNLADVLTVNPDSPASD
In short: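 Kds, run in duplicate, came from Hill fits (slope fixed at −1) of an 11-point 3-fold dilution series starting at 30,000 nM. Bead-retained TYK2 JH2 (aa G556–D888)–NFkB DBD fusion, DNA-tagged and expressed in HEK293 cells, was read by qPCR after 1 h room-temperature binding in 0.9% DMSO.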

Sequence of JAK2 kinase domain (JH1) (O60674 849-1124): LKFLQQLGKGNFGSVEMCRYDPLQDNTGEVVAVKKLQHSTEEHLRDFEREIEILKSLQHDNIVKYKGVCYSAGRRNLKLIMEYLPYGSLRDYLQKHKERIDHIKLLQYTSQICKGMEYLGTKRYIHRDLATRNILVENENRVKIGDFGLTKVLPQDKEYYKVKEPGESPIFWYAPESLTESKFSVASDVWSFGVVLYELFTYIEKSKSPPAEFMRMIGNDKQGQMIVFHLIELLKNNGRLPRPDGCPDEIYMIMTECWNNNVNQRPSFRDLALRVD

SMILES | inhibition at 10 µM (JAK2 kinase domain (JH1)) | inhibition at 10 µM (Tyk2 kinase domain (DH1)) | Kd [1] | JAK2 JH1% Inhibition @ 10 μM (JAK2 kinase domain (JH1)) | Tyk2 JH1% Inhibition @ 10 μM (Tyk2 kinase domain (DH1))
[2H]C([2H])([2H])Oc1ncccc1Nc1cc(NC)n2ncc(C(=O)NC(C)(C)C#N)c2n1 [I-493, N-(2-cyanopropan-2-yl)-5-((2-(methoxy-d3)pyridin-3-yl)amino)-7-(methylamino)pyrazolo[1,5-a]pyrimidine-3-carboxamide] | < 50% | < 50% | 0.2 to 1 nM |  | 
[2H]C([2H])([2H])Oc1ncccc1Nc1cc(NC)n2ncc(C(=O)N[C@H]3CCC[C@H](O)C3)c2n1 [I-498] |  |  | < 0.2 nM | A (percent inhibition at 10 μM lower than 50) | A (percent inhibition at 10 μM lower than 50)
CNc1cc(Nc2cccc(C3CCCOC3)n2)nc2c(C(=O)NC3CC3)cnn12 (stereo not drawn) [I-508] | < 50% | < 50% | 0.2 to 1 nM |  | 
CNc1cc(Nc2cccn(C3CCOCC3)c2=O)nc2c(C(=O)NCC(C)(C)CO)cnn12 [I-509] | < 50% | < 50% | < 0.2 nM |  | 
CNc1cc(-c2nn([C@@H]3CCOC3)c3ncccc23)nc2c(C(=O)N[C@@H]3C[C@@H]3F)cnn12 [I-517] | < 50% | < 50% | 0.2 to 1 nM |  | 
CNc1cc(-c2nn([C@H]3CCOC3)c3ncccc23)nc2c(C(=O)N[C@@H]3C[C@@H]3F)cnn12 [I-518] | < 50% | < 50% | 0.2 to 1 nM |  | 
CNc1cc(Nc2cccn(C3CCOCC3)c2=O)nc2c(C(=O)N[C@H]3CC[C@H]3O)cnn12 [I-527] | < 50% | < 50% | 0.2 to 1 nM |  | 
CNc1cc(Nc2cccn(C3CCOCC3)c2=O)nc2c(C(=O)N[C@H]3CC[C@@H]3O)cnn12 [I-528] | < 50% | < 50% | < 0.2 nM |  | 
CNc1cc(Nc2cccc(C3CCCCO3)n2)nc2c(C(=O)NCC3(CO)CC3)cnn12 (stereo not drawn) [I-530] | < 50% | < 50% | 0.2 to 1 nM |  | 
CNc1cc(Nc2ccc3c(n2)OCCO3)nc2c(C(=O)NC3CC3)cnn12 [I-531] | < 50% | < 50% | 0.2 to 1 nM |  | 
CNc1cc(Nc2ccc3c(n2)OCCO3)nc2c(C(=O)N[C@H]3C[C@H]3F)cnn12 [I-532] | < 50% | < 50% | 0.2 to 1 nM |  | 
CNc1cc(Nc2cccn(C3CCN(C)CC3)c2=O)nc2c(C(=O)NCC(C)(C)CO)cnn12 [I-542] | < 50% | < 50% | 0.2 to 1 nM |  | 
CNc1cc(Nc2cccn(C3CCN(C)CC3)c2=O)nc2c(C(=O)NCC3(CO)CC3)cnn12 [I-543] | < 50% | < 50% | 0.2 to 1 nM |  | 
CNc1cc(Nc2cccnc2OC2CC2)nc2c(C(=O)N[C@@H]3COC[C@@H]3O)cnn12 [I-546] | < 50% | < 50% | 1 to 10 nM |  | 
CNc1cc(Nc2cccc([C@@H]3CCCOC3)n2)nc2c(C(=O)NC3CC3)cnn12 [I-548] | 50 to 70% | < 50% | < 0.2 nM |  | 
CNc1cc(Nc2cccc([C@H]3CCCOC3)n2)nc2c(C(=O)NC3CC3)cnn12 [I-549] | < 50% | < 50% | < 0.2 nM |  | 
CNc1cc(-n2cc(N3CCCC3)c3ncccc32)nc2c(C(=O)NC3CC3)cnn12 [I-552] | < 50% | < 50% | 1 to 10 nM |  | 
CNc1cc(-n2cc(N3CCCC3)c3ncccc32)nc2c(C(=O)N[C@@H]3C[C@@H]3F)cnn12 [I-553] | < 50% | < 50% | 0.2 to 1 nM |  | 
CNc1cc(-n2cc(N3CCOCC3)c3ncccc32)nc2c(C(=O)NC3CC3)cnn12 [I-554] | < 50% | < 50% | 1 to 10 nM |  | 
CNc1cc(-n2cc(N3CCOCC3)c3ncccc32)nc2c(C(=O)N[C@H]3C[C@H]3F)cnn12 [I-555] | < 50% | < 50% | 1 to 10 nM |  | 

The next lines start with results.

inhibition at 10 µM (JAK2 kinase domain (JH1)) | inhibition at 10 µM (Tyk2 kinase domain (DH1)) | Kd [1] | SMILES | JAK2 JH1% Inhibition @ 10 μM (JAK2 kinase domain (JH1)) | Tyk2 JH1% Inhibition @ 10 μM (Tyk2 kinase domain (DH1))
< 50% | < 50% | 0.2 to 1 nM | CNc1cc(Nc2cc(F)cn(C3CCCOC3)c2=O)nc2c(C(=O)NC3CC3)cnn12 (stereo not drawn) [I-494] |  | 
< 50% | < 50% | < 0.2 nM | CNc1cc(Nc2cccnc2OC)nc2c(C(=O)N[C@H]3CCC[C@H](O)C3)cnn12 [I-496] |  | 
 |  | < 0.2 nM | CNc1cc(Nc2cccnc2OC)nc2c(C(=O)N[C@@H]3CCC[C@@H](O)C3)cnn12 [I-497] | A (percent inhibition at 10 μM lower than 50) | A (percent inhibition at 10 μM lower than 50)
< 50% | < 50% | < 0.2 nM | [2H]C([2H])([2H])Oc1ncccc1Nc1cc(NC)n2ncc(C(=O)N[C@@H]3CC[C@@H](O)C3)c2n1 [I-501] |  | 
< 50% | < 50% | 0.2 to 1 nM | CNc1cc(Nc2cccn(C3=NC(C)(C)CS3)c2=O)nc2c(C(=O)NC3CC3)cnn12 [I-502] |  | 
< 50% | < 50% | 0.2 to 1 nM | CNc1cc(Nc2cccn(C3=NC(C)(C)CS3)c2=O)nc2c(C(=O)NC3CCC3)cnn12 [I-503] |  | 
< 50% | < 50% | 0.2 to 1 nM | CNc1cc(Nc2cccn(-c3nn(C)c(C)c3C)c2=O)nc2c(C(=O)NC3CC3)cnn12 [I-504] |  | 
< 50% | < 50% | 0.2 to 1 nM | CNc1cc(Nc2cccn(-c3nn(C)c(C)c3C)c2=O)nc2c(C(=O)N[C@@H]3C[C@@H]3F)cnn12 [I-505] |  | 
< 50% | < 50% | < 0.2 nM | CNc1cc(Nc2cccn(C3CCCN(C)C3)c2=O)nc2c(C(=O)N[C@@H]3C[C@@H]3F)cnn12 (stereo partly drawn) [I-506] |  | 
< 50% | < 50% | 0.2 to 1 nM | CNc1cc(Nc2cccn([C@@H]3CCC[C@@H]3OC)c2=O)nc2c(C(=O)N[C@@H]3C[C@@H]3F)cnn12 [I-507] |  | 
< 50% | < 50% | 0.2 to 1 nM | CNc1cc(Nc2cccn([C@H]3CCCN(C)C3)c2=O)nc2c(C(=O)NC3CC3)cnn12 [I-511] |  | 
< 50% | < 50% | < 0.2 nM | CNc1cc(Nc2cccn([C@@H]3CCCN(C)C3)c2=O)nc2c(C(=O)NC3CC3)cnn12 [I-512] |  | 
 |  | < 0.2 nM | CNc1cc(Nc2cccn(CCOC3CC3)c2=O)nc2c(C(=O)N[C@@H]3CC[C@H]3O)cnn12 [I-513] | A (percent inhibition at 10 μM lower than 50) | A (percent inhibition at 10 μM lower than 50)
< 50% | < 50% | 1 to 10 nM | CNc1cc(Nc2cccn(CCOC3CC3)c2=O)nc2c(C(=O)N[C@H]3CC[C@@H]3O)cnn12 [I-514, 5-((1-(2-cyclopropoxyethyl)-2-oxo-1,2-dihydropyridin-3-yl)amino)-N-((1 S,2S)-2-hydroxycyclobutyl)-7-(methylamino)pyrazolo[1,5-a]pyrimidine-3-carboxamide] |  | 
 |  | 1 to 10 nM | CNc1cc(Nc2cccn(CCOC3CC3)c2=O)nc2c(C(=O)N[C@@H]3CC[C@@H]3O)cnn12 [I-516] | A (percent inhibition at 10 μM lower than 50) | A (percent inhibition at 10 μM lower than 50)
< 50% | < 50% | 0.2 to 1 nM | CNc1cc(Nc2cccn(C3=NC(C)(C)CS3)c2=O)nc2c(C(=O)N[C@@H]3C[C@@H]3F)cnn12 [I-526] |  | 
< 50% | < 50% | < 0.2 nM | CNc1cc(Nc2cc(F)cn([C@@H]3CCCOC3)c2=O)nc2c(C(=O)NC3CC3)cnn12 [I-533] |  | 
< 50% | < 50% | 0.2 to 1 nM | CNc1cc(Nc2cc(F)cn([C@H]3CCCOC3)c2=O)nc2c(C(=O)NC3CC3)cnn12 [I-534] |  | 
< 50% | < 50% | < 0.2 nM | CNc1cc(Nc2cccn([C@H]3CCCN(C)C3)c2=O)nc2c(C(=O)N[C@@H]3C[C@@H]3F)cnn12 [I-535] |  | 
< 50% | < 50% | 0.2 to 1 nM | CNc1cc(Nc2cccn([C@@H]3CCCN(C)C3)c2=O)nc2c(C(=O)N[C@@H]3C[C@@H]3F)cnn12 [I-536] |  | 
 |  | 1 to 10 nM | CNc1cc(Nc2cccn([C@@H]3CCC[C@@H]3OC)c2=O)nc2c(C(=O)N[C@@H]3C[C@@H]3F)cnn12 [I-537] | A (percent inhibition at 10 μM lower than 50) | A (percent inhibition at 10 μM lower than 50)
< 50% | < 50% | 1 to 10 nM | CNc1cc(Nc2cccn([C@H]3CCC[C@H]3OC)c2=O)nc2c(C(=O)N[C@@H]3C[C@@H]3F)cnn12 [I-538] |  | 
< 50% | < 50% | < 0.2 nM | CNc1cc(Nc2cccn(C3CC4(COC4)C3)c2=O)nc2c(C(=O)NC3CC3)cnn12 [I-550] |  | 
< 50% | < 50% | < 0.2 nM | CNc1cc(Nc2cccn(C3CCOCC3)c2=O)nc2c(C(=O)N[C@@H]3CC[C@@H]3O)cnn12 [I-556] |  | 
 |  | 0.2 to 1 nM | CNc1cc(Nc2cccn(C3CCOCC3)c2=O)nc2c(C(=O)N[C@H]3CC[C@H]3O)cnn12 [I-557] | A (percent inhibition at 10 μM lower than 50) | A (percent inhibition at 10 μM lower than 50)
